{
  "source": "patent US20100041089A1",
  "about": "“IMPROVED METHOD FOR DETECTING CHEMICAL […]” (priority 2006, published 2010)",
  "system": "yeast genes (expressed mRNA)",
  "test": "DNA chip measurement of expressed mRNA of yeast genes after culture with a toxic chemical substance",
  "format": "cell-based, Saccharomyces cerevisiae S288C",
  "conditions": "for The level of expressed mRNA in the presence of chemical substance/The level of expressed mRNA in the absence of chemical substance: cultured two hours with substance; for level of expressed mRNA in the presence of chemical substance / level in the absence of chemical substance: cultured two hours with the chemical substance",
  "outline": "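Fluorescence ratio, treated over untreated, read by chip scanner; ratio of two or more counted significant. Cells: S288C yeast, YPD, 25° C, chemical added at log phase for 2 h at growth-inhibiting, sublethal level. Cy3/Cy5-labeled cDNA from oligo-dT-purified mRNA.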",
  "data": [
    {"substance": "Na2As [(1)]", "values": [
      {"measurement": "The level of expressed mRNA in the presence of chemical substance/The level of expressed mRNA in the absence of chemical substance", "setting": "yeast gene YJL151C", "result": 1.0},
      {"measurement": "The level of expressed mRNA in the presence of chemical substance/The level of expressed mRNA in the absence of chemical substance", "setting": "yeast gene YJL152W", "result": 0.9},
      {"measurement": "The level of expressed mRNA in the presence of chemical substance/The level of expressed mRNA in the absence of chemical substance", "setting": "yeast gene YJL161W", "result": 1.7},
      {"measurement": "The level of expressed mRNA in the presence of chemical substance/The level of expressed mRNA in the absence of chemical substance", "setting": "yeast gene YJL171C", "result": 2.3},
      {"measurement": "The level of expressed mRNA in the presence of chemical substance/The level of expressed mRNA in the absence of chemical substance", "setting": "yeast gene YJR008W", "result": 1.6},
      {"measurement": "level of expressed mRNA in the presence of chemical substance / level in the absence of chemical substance", "setting": "yeast gene YJR030C", "result": 0.7},
      {"measurement": "The level of expressed mRNA in the presence of chemical substance/The level of expressed mRNA in the absence of chemical substance", "setting": "yeast gene YJR054W", "result": 0.8},
      {"measurement": "level of expressed mRNA in the presence of chemical substance / level in the absence of chemical substance", "setting": "yeast gene YKL051W", "result": 1.0},
      {"measurement": "The level of expressed mRNA in the presence of chemical substance/The level of expressed mRNA in the absence of chemical substance", "setting": "yeast gene YKL071W", "result": 8.3},
      {"measurement": "The level of expressed mRNA in the presence of chemical substance/The level of expressed mRNA in the absence of chemical substance", "setting": "yeast gene YKL086W", "result": 1.0},
      {"measurement": "level of expressed mRNA in the presence of chemical substance / level in the absence of chemical substance", "setting": "yeast gene YKL097C", "result": 0.9},
      {"measurement": "level of expressed mRNA in the presence of chemical substance / level in the absence of chemical substance", "setting": "yeast gene YKL100C", "result": 0.7},
      {"measurement": "The level of expressed mRNA in the presence of chemical substance/The level of expressed mRNA in the absence of chemical substance", "setting": "yeast gene YKL151C", "result": 1.2},
      {"measurement": "The level of expressed mRNA in the presence of chemical substance/The level of expressed mRNA in the absence of chemical substance", "setting": "yeast gene YKL153W", "result": 1.1},
      {"measurement": "The level of expressed mRNA in the presence of chemical substance/The level of expressed mRNA in the absence of chemical substance", "setting": "yeast gene YKL195W", "result": 0.8},
      {"measurement": "level of expressed mRNA in the presence of chemical substance / level in the absence of chemical substance", "setting": "yeast gene YKR040C", "result": 1.2},
      {"measurement": "The level of expressed mRNA in the presence of chemical substance/The level of expressed mRNA in the absence of chemical substance", "setting": "yeast gene YKR091W", "result": 1.5},
      {"measurement": "The level of expressed mRNA in the presence of chemical substance/The level of expressed mRNA in the absence of chemical substance", "setting": "yeast gene YLR054C", "result": 2.0},
      {"measurement": "The level of expressed mRNA in the presence of chemical substance/The level of expressed mRNA in the absence of chemical substance", "setting": "yeast gene YLR149C", "result": 1.4},
      {"measurement": "The level of expressed mRNA in the presence of chemical substance/The level of expressed mRNA in the absence of chemical substance", "setting": "yeast gene YLR152C", "result": 0.7},
      {"measurement": "The level of expressed mRNA in the presence of chemical substance/The level of expressed mRNA in the absence of chemical substance", "setting": "yeast gene YLR194C", "result": 2.1},
      {"measurement": "level of expressed mRNA in the presence of chemical substance / level in the absence of chemical substance", "setting": "yeast gene YLR226W", "result": 1.0},
      {"measurement": "The level of expressed mRNA in the presence of chemical substance/The level of expressed mRNA in the absence of chemical substance", "setting": "yeast gene YLR324W", "result": 0.7},
      {"measurement": "level of expressed mRNA in the presence of chemical substance / level in the absence of chemical substance", "setting": "yeast gene YLR338W", "result": 1.1},
      {"measurement": "The level of expressed mRNA in the presence of chemical substance/The level of expressed mRNA in the absence of chemical substance", "setting": "yeast gene YLR350W", "result": 1.2},
      {"measurement": "The level of expressed mRNA in the presence of chemical substance/The level of expressed mRNA in the absence of chemical substance", "setting": "yeast gene YLR387C", "result": 0.9},
      {"measurement": "level of expressed mRNA in the presence of chemical substance / level in the absence of chemical substance", "setting": "yeast gene YLR392C", "result": 1.1},
      {"measurement": "level of expressed mRNA in the presence of chemical substance / level in the absence of chemical substance", "setting": "yeast gene YLR415C", "result": 1.1},
      {"measurement": "level of expressed mRNA in the presence of chemical substance / level in the absence of chemical substance", "setting": "yeast gene YLR427W", "result": 0.6},
      {"measurement": "The level of expressed mRNA in the presence of chemical substance/The level of expressed mRNA in the absence of chemical substance", "setting": "yeast gene YLR460C", "result": 2.1},
      {"measurement": "level of expressed mRNA in the presence of chemical substance / level in the absence of chemical substance", "setting": "yeast gene YML013W", "result": 0.8},
      {"measurement": "level of expressed mRNA in the presence of chemical substance / level in the absence of chemical substance", "setting": "yeast gene YML029W", "result": 0.6},
      {"measurement": "level of expressed mRNA in the presence of chemical substance / level in the absence of chemical substance", "setting": "yeast gene YML041C", "result": 1.2},
      {"measurement": "level of expressed mRNA in the presence of chemical substance / level in the absence of chemical substance", "setting": "yeast gene YML079W", "result": 1.0},
      {"measurement": "The level of expressed mRNA in the presence of chemical substance/The level of expressed mRNA in the absence of chemical substance", "setting": "yeast gene YML117W", "result": 0.9},
      {"measurement": "The level of expressed mRNA in the presence of chemical substance/The level of expressed mRNA in the absence of chemical substance", "setting": "yeast gene YMR009W", "result": 2.3},
      {"measurement": "The level of expressed mRNA in the presence of chemical substance/The level of expressed mRNA in the absence of chemical substance", "setting": "yeast gene YMR067C", "result": 0.9},
      {"measurement": "level of expressed mRNA in the presence of chemical substance / level in the absence of chemical substance", "setting": "yeast gene YMR068W", "result": 0.9},
      {"measurement": "level of expressed mRNA in the presence of chemical substance / level in the absence of chemical substance", "setting": "yeast gene YMR071C", "result": 1.0},
      {"measurement": "The level of expressed mRNA in the presence of chemical substance/The level of expressed mRNA in the absence of chemical substance", "setting": "yeast gene YMR090W", "result": 6.9},
      {"measurement": "The level of expressed mRNA in the presence of chemical substance/The level of expressed mRNA in the absence of chemical substance", "setting": "yeast gene YMR095C", "result": 1.1},
      {"measurement": "The level of expressed mRNA in the presence of chemical substance/The level of expressed mRNA in the absence of chemical substance", "setting": "yeast gene YMR097C", "result": 1.5},
      {"measurement": "The level of expressed mRNA in the presence of chemical substance/The level of expressed mRNA in the absence of chemical substance", "setting": "yeast gene YMR102C", "result": 1.0},
      {"measurement": "The level of expressed mRNA in the presence of chemical substance/The level of expressed mRNA in the absence of chemical substance", "setting": "yeast gene YMR107W", "result": 5.0},
      {"measurement": "level of expressed mRNA in the presence of chemical substance / level in the absence of chemical substance", "setting": "yeast gene YMR160W", "result": 0.8},
      {"measurement": "The level of expressed mRNA in the presence of chemical substance/The level of expressed mRNA in the absence of chemical substance", "setting": "yeast gene YMR180C", "result": 1.2},
      {"measurement": "The level of expressed mRNA in the presence of chemical substance/The level of expressed mRNA in the absence of chemical substance", "setting": "yeast gene YMR184W", "result": 1.3},
      {"measurement": "The level of expressed mRNA in the presence of chemical substance/The level of expressed mRNA in the absence of chemical substance", "setting": "yeast gene YMR191W", "result": 1.3},
      {"measurement": "The level of expressed mRNA in the presence of chemical substance/The level of expressed mRNA in the absence of chemical substance", "setting": "yeast gene YMR295C", "result": 1.7},
      {"measurement": "The level of expressed mRNA in the presence of chemical substance/The level of expressed mRNA in the absence of chemical substance", "setting": "yeast gene YMR316W", "result": 3.2},
      {"measurement": "level of expressed mRNA in the presence of chemical substance / level in the absence of chemical substance", "setting": "yeast gene YNL026W", "result": 0.7},
      {"measurement": "The level of expressed mRNA in the presence of chemical substance/The level of expressed mRNA in the absence of chemical substance", "setting": "yeast gene YNL044W", "result": 1.3}
    ]}
  ]
}
